# According to patent US20240226160A9, “ACTIVITY-INDUCIBLE FUSION PROTEINS HAVING A HEAT SHOCK PROTEIN 90 BINDING DOMAIN” (Seattle Children's Hospital d/b/a Seattle Children's …, priority 2021, published 2024):
# Numbering of substitutions follows the chain as printed.
# How the values were obtained:
# huCD19CAR-EBD(4OHT) = test: Anti-CD3zeta western blot with band quantification; format: cell-based; conditions: 500 nM, 24 hr incubation, vs 0 nM
# Protocol: FIG. 26. Anti-zeta Western Blot evaluating huCD19CAR-EBD(4OHT) with differing Glycine linkers in 0 nM and 500 nM of 4OHT OR (Z)-endoxifen. Protein processing and expression of huCD19CAR-EBD with different linkers between the CAR and the EBD was evaluated using an anti-CD3zeta western blot analysis. Whole cell lysates were made for the huCD19CAR-EBD(4OHT) T cell lines with either a 1Glycline, 2Glycine or 3Glycine linker between the CAR and EBD domains in 0 nM and 500 nM 4OHT/(Z)-endoxifen drug conditions following a 24 hr incubation. Whole cell lysates were also made for the Mock T cell line and the CAR alone T cell line under the same conditions. The western blot was imaged and analyzed on the LiCOR Odyssey. Additionally, protein band quantification was performed using the LiCOR Odyssey. CAR zeta chain expression is observed for all CAR-1/2/3Glylinker-EBD lines in both the no drug and maximum drug conditions.
# [1] = biological target: T1, B7H3CAR-3Gly-EBD variants (Homo sapiens, UniProt P03372, G521R/L384M/M421G); conditions: B7H3CAR-3Gly-EBD(CMP8) vs K562+mCherry, drug added at 24 hrs
# T1 sequence (P03372 282-595 L384M/M421G/G521R): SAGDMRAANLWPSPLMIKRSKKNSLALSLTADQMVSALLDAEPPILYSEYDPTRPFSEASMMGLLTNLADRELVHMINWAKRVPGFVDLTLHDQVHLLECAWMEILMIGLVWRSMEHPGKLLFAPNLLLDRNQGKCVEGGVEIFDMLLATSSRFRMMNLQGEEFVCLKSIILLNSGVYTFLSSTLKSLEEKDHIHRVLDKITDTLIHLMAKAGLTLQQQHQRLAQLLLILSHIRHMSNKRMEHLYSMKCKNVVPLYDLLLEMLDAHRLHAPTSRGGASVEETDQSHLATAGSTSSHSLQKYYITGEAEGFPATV
# Protocol: (31A) Incucyte Cytotoxicity Assay: B7H3CAR-3Gly-EBD variants. CD4 and CD8 T cells (mixed at a 1:1 ratio) expressing a either B7H3CAR-3Gly-EBD(4OHT), B7H3CAR-3Gly-EBD(CMP8), or B7H3CAR-3Gly-EBD(ES8) were either preincubated for 24 hrs with 500 nM inducer drug or not preincubated. These T cells were subsequently plated with CAR-target expressing tumor lines (K562, and/or Be2) constitutively expressing mCherry (for detection and quantification). […] Plates were placed inside of an Incucyte and imaged every 3-4 hours for several days. mCherry signal was then quantified and plotted as a function of time. […]
# (32A-32C) CD4 and CD8 T cells (mixed at a 1:1 ratio) expressing either B7H3CAR-3Gly-EBD(4OHT), B7H3CAR-3Gly-EBD(CMP8), or B7H3CAR-3Gly-EBD(ES8) (were either preincubated for 24 hrs with 500 nM inducer drug or not preincubated (B7H3CAR-3Gly-EBD(4OHT) received 500 nM 4OHT, B7H3CAR-3Gly-EBD(CMP8) received 500 nM CMP8, B7H3CAR-3Gly-EBD(ES8) received 500 nM ES8). These T cells were subsequently plated with CAR-target expressing tumor lines (K562, and/or Be2) constitutively expressing mCherry (for detection and quantification). Tumors were plated at 10,000 per well, and co-culture was performed at a 4:1 ratio (T cell:tumor cell) with or without the appropriate drug at 500 nM. […]
# EBD(ES8) = biological target: T2, EBD(ES8) (Homo sapiens, UniProt P03372, E353A); test: CD107a activation assay (flow cytometry MFI); format: cell-based; conditions: for CD107a response of EBD(ES8) to drug: 24 hr preconditioning, 4 hours co-culture
# T2 sequence (P03372 282-595 E353A): T1 sequence (P03372 282-595 L384M/M421G/G521R) with E72A, M103L, G140M, R240G
# Protocol: FIGS. 28A, 28B. (28A) CD107a activation assay: huCD19CAR-EBD(4OHT) linker variants vs K562+CD19t. […] To achieve this, T cells (including mock and constitutively active CAR controls) were preconditioned with target drug concentration(s) for 24 hrs, then exposed to a tumor line expressing their target antigen (CD19 or B7H3). After 4 hours of co-culture with target tumors at various drug concentrations, the T cells were assessed for a) activation and degranulation by staining for CD107a and b) cell surface CAR-EBD by staining for human scFv (which works for both B7H3CAR and huCD19CAR), then running on flow cytometry. MFI (median fluorescence intensity) was determined for each stain on each sample under each condition and plotted on a log scale of drug concentration. EC10 and EC90 (effective concentration 10% and 90%) were calculated in Graphpad Prism for CD107a expression and function as estimates for the drug concentration required for each construct to turn “on” or “off”. Positive and negative controls for each CAR are presented in the bar graph. […] EBD(4OHT) responds to 4-OHT and (Z)-endoxifen, but not to CMP8 or ES8. The responsiveness of degranulation to target antigen in the presence of inducer molecule is largely similar between the Gly linker variants. EBD(4OHT) is very sensitive to its intended inducer molecules, beginning to activate (EC10) at single nanomolar concentrations and becoming fully activated (EC90) at double digit nanomolar concentrations. […] Both EBD(CMP8) and EBD(ES8) respond to 4OHT.
# B7H3 EBD(CMP8) CAR = biological target: T3, B7H3 EBD(CMP8) CAR (Homo sapiens, UniProt P03372, G521R/L384M/M421G); test: Jurkat iSynPro eGFP:ffluc reporter assay (GFP by flow cytometry); format: cell-based
# T3 construct: expressed in transfected cells; host or cells: clonal Jurkat iSynPro eGFP:ffluc reporter cell line (transduced)
# T3 sequence (P03372 282-595 L384M/M421G/G521R): T1 sequence (P03372 282-595 L384M/M421G/G521R)
# Protocol: FIG. 11. Design of B7H3 CAR EBD mutant study. […] Jurkat iSynPro lines included cJ10792: Jurkat iSynPro-GFP:ffluc; cJ13093: Jurkat iSynPro-GFP:ffluc+B7H3 CAR; cJ13094: Jurkat iSynPro-GFP:ffluc+B7H3 CAR EBD (4-OHT); and cJ13095: Jurkat iSynPro-GFP:ffluc+B7H3 CAR EBD (CMP8) with a K562 parental target. 4-OHT and CMP8 concentrations of 0 nM, 500 nM and 1000 nM were tested for each cell line.
# FIG. 16. Design of activation curve study. The objective of the study was to examine activation curves of CAR EBD Jurkat iSynPro lines in an increasing presence of 4-OHT, (Z)-endoxifen, or CMP8.
# FIG. 9 (top) depicts a schematic of Jurkat iSynPro eGFP:ffluc reporter cells. Jurkat iSynPro eGFP:ffluc reporter cells feature a Jurkat cell line lentivirally transduced to stably express a inducible synthetic promoter (iSynPro WO2018213332A1) regulating the expression of an enhanced green fluorescent protein (eGFP) fused to bioluminescent reporter firefly luciferase (ffluc). This line was then clonally selected by limiting dilution. […]
# Jurkat iSynPro eGFP:ffluc assays are also depicted in FIG. 9 (bottom). […] At the 24 hr timepoint, cells were collected and evaluated by flow cytometry. Cells were initially stained for CD33 to gate out target cell lines before they were evaluated for GFP expression by positivity and/or mean fluorescence intensity (MFI). […]
# B7H3CAR-3Gly-EBD(4OHT) [2] = biological target: T4, B7H3CAR-3Gly-EBD(4OHT) (Homo sapiens, UniProt P03372, G400V/L544A/M543A); test: Chromium release assay, specific cell lysis; format: cell-based
# T4 construct: expressed in transfected cells; T cells by b52 and b55
# T4 sequence (P03372 282-595 G400V/M543A/L544A): T1 sequence (P03372 282-595 L384M/M421G/G521R) with M103L, G119V, G140M, R240G, M262A, L263A
# Protocol: FIG. 18. […] Specific cell lysis was evaluated using a chromium release assay. […] Following the 4 hr incubation the Perkin Elmer TopCount was used to quantify the amount of Cr51 released into each well as tumor lysis occurred.
# B7H3CAR-3Gly-EBD(4OHT) [3] = biological target: T4, B7H3CAR-3Gly-EBD(4OHT); test: Meso Scale Diagnostic cytokine release assay; format: cell-based; conditions: 24 hr drug culture 0-500 nM, 24 hr co-incubation with tumor lines
# Protocol: FIGS. 19A, 19B. […] (20A and 20B) Cytokine release was evaluated using a Meso Scale Diagnostic assay. […] Following the 24 hr incubation the supernatant from each co-incubation was collected and run on the MESO QuickPlex SQ 120 instrument to ascertain the amount of cytokine released.
smiles,measurement,setting,value
"CC/C(=C(\c1ccc(O)cc1)c1ccc(OCCN(C)C)cc1)c1ccccc1 [4-OHT, 4-hydroxytamoxifen]",increase in CAR-EBD protein expression (zeta chain band quantification),huCD19CAR-EBD(4OHT),~3 fold
CC/C(=C(\c1ccc(O)cc1)c1ccc(OCCNC)cc1)c1ccccc1 [(Z)-endoxifen],increase in CAR-EBD protein expression (zeta chain band quantification),huCD19CAR-EBD(4OHT),~3 fold
O=C1CCC2(Cc3ccc(Cl)cc3)Cc3cc(O)ccc3C2=C1c1ccc(OCCN2CCCCC2)cc1 (centres unmarked) [CMP8],change in tumor growth kinetics once activated,[1],immediate
same,CD107a response of EBD(ES8) to drug,EBD(ES8),does not respond to
same,induction of expression at lowest drug level,B7H3 EBD(CMP8) CAR; 0.49 nM of drug,still observed
same,response of EBD(CMP8) mutant (GFP induction),"B7H3 EBD(CMP8) CAR; K562 target, 24 hr",response
same,specific lysis,B7H3CAR-3Gly-EBD(4OHT) [2]; 500 nM,0%
same,regulation of CAR activity (specific cell lysis),"B7H3CAR-3Gly-EBD(4OHT) [2]; 24 hr drug culture 0-500 nM, 4 hr co-incubation with Cr-51 tumor line",is not regulated by
same,regulation of CAR activity (cytokine release),B7H3CAR-3Gly-EBD(4OHT) [3],is not regulated by
C[C@]12CC[C@@H]3c4ccc(/C=C/C(=O)O)cc4CC[C@H]3[C@@H]1CC[C@@H]2O [ES8],CD107a response of EBD(ES8) to drug,EBD(ES8),very sensitive to induction
same,maximum magnitude of induction,EBD(ES8); CD107a,less than its induction with 4OHT
